NC(N)=NC(N)=NCCc1ccccc1
solubility (mole fraction)
Conditions	278.15 K	283.15 K	288.15 K	293.15 K	298.15 K	303.15 K	308.15 K	313.15 K	318.15 K	323.15 K
in 1,4-dioxane	–	–	0.000166	0.000202	0.000249	0.000312	0.000379	0.00046	0.000551	0.00065
in DMF	0.0158	0.0191	0.0226	0.0256	0.0303	0.0353	0.0411	0.0491	0.0579	0.0655
in DMSO	–	–	–	0.0217	0.025	0.0305	0.0359	0.0431	0.0508	0.0603
in NMP	0.0113	0.014	0.017	0.0202	0.0235	0.028	0.0337	0.0409	0.0486	0.0579
in acetonitrile	0.000211	0.00026	0.000322	0.000398	0.000494	0.000596	0.00071	0.00084	0.00101	0.00119
in ethanol	0.00183	0.0022	0.00266	0.00322	0.00378	0.00449	0.00524	0.00614	0.00723	0.00847
in ethyl acetate	0.00157	0.00184	0.0022	0.00265	0.00318	0.00379	0.00445	0.00521	0.00603	0.00695
in ethylene glycol	0.0033	0.00366	0.00417	0.00481	0.00567	0.00677	0.00774	0.00919	0.011	0.0128
in isobutanol	0.000518	0.00063	0.000792	0.00095	0.00116	0.00139	0.00167	0.00197	0.00229	0.00265
in isopropanol	0.000814	0.000976	0.00118	0.00142	0.00174	0.00208	0.00247	0.00288	0.00334	0.00383
in methanol	0.00237	0.0028	0.00328	0.00385	0.00457	0.00532	0.00623	0.00743	0.00823	0.0103
in n-butanol	0.000627	0.000777	0.000923	0.00118	0.00142	0.00167	0.00194	0.00227	0.00265	0.00308
in n-propanol	0.000975	0.00116	0.00137	0.00173	0.00208	0.00249	0.0029	0.00341	0.00396	0.00452
in water	0.000389	0.000481	0.000585	0.000739	0.000888	0.00107	0.00126	0.00148	0.00175	0.00206

Source: BigSolDB 2.1
